Data set [1] has as its target T1, A. baumannii ATP synthase (Acinetobacter baumannii, UniProt A3M139).
T1 construct: endogenous electron transport chains of inverted inner membrane vesicles were energized with NADH; endogenous in cells; host or cells: inverted inner membrane vesicles prepared from A. baumannii ATCC 17978 cells
Also noted: method as in PMID 40014581. Conditions: quinoline lead of the earlier series, comparison; read-out: IC50, AB ATP synthase (converted); cited from earlier work.

In data set [2] the test system is MDR AB BAA 1605. Also noted: method as in PMID 40014581. Conditions: quinoline lead of the earlier series, Figure 1; cited from earlier work.
The subject of a further data set is HEK 293 cells. The experiment in a line: XTT cell viability cytotoxicity assay. Conditions: n = 3, 24 h treatment.
In another data set the test system is AB BAA 1605. The experiment in a line: Checkerboard assay with colistin sulfate, BAA 1605. Conditions: for MIC: Acinetobacter baumannii, BAA1605, read-out: MIC alone, AB BAA 1605; for fold change of MIC, AB BAA 1605: alone vs +colistin; for fractional inhibitory concentration index (FICI) / interaction with colistin, MDR AB BAA 1605: synergistic FICI ≤ 0.5, additivity FICI 0.5 < x < 1; for MIC +colistin, AB BAA 1605: with 0.25 μg/mL colistin.

Data set [3] concerns AB ATCC 17978. Briefly: Checkerboard assay with colistin sulfate, ATCC 17978. Conditions: for MIC: Acinetobacter baumannii, ATCC17978, read-out: MIC alone, AB ATCC 17978; for fold change of MIC, AB ATCC 17978: alone vs +colistin; for fractional inhibitory concentration index (FICI) / interaction with colistin, AB ATCC 17978: synergistic FICI ≤ 0.5, additivity FICI 0.5 < x < 1.
Protocol: Synthesized compounds in DMSO (2–128 μg/mL, row G-A) were combined with colistin sulfate in ultra purified water (0.125–32 μg/mL, column 2–10) in a 96-well microtiter plate checkerboard assay against ATCC 17978 and BAA-1605 (MDR). Briefly, liquid cultures of bacteria were grown for 14–16 h by inoculating a single bacterial culture into 10 mL TSB. To each well 88 μL of TSB, 10 μL of bacteria culture, and 1 from each master plate was added (see layout below). Plates were covered and incubated at 37 °C for 12–18 h.

In data set [4] the test system is MDR AB BAA 1605. The experiment in a line: Broth microdilution antimicrobial susceptibility assay, MDR isolate. Conditions: Acinetobacter baumannii, BAA1605, read-out: MIC, MDR AB BAA 1605.
The subject of data set [5] is AB ATCC 17978. Briefly: Broth microdilution antimicrobial susceptibility assay, susceptible isolate. Conditions: Acinetobacter baumannii, ATCC17978, read-out: MIC, AB ATCC 17978.
Data set [6] concerns the target T1, A. baumannii ATP synthase. Briefly: AB ATP synthase inhibition: NADH-driven ATP synthesis in inverted inner membrane vesicles, luciferin/luciferase readout. Type of data set: biochemical. Conditions: for Hill coefficient (Hill slope): fit of ATP synthesis dose response curve. How it is done:
Once synthesized, the pyridine compounds were tested for their ability to inhibit ATP synthase activity using our previously reported luciferin/luciferase assay. Briefly, endogenous electron transport chains of inverted inner membrane vesicles were energized with NADH to generate a proton gradient and to drive ATP synthesis. ATP was measured via luminescence from the luciferase-catalyzed oxidation of D-luciferin. Luminescence activities across increasing inhibitor concentrations were corrected for gradient independent background sources of ATP by comparison with a control containing the protonophore CCCP (carbonyl cyanide 3-chlorophenylhydrazone). The data were then fit to a four-parameter logistic dose–response curve, from which IC50 values and Hill coefficients were determined using a nonlinear least-squares regression.
A. baumannii (ATCC 17978) cells were grown in LB medium at 37 °C with shaking at 150 rpm and harvested by centrifugation in the late exponential phase of growth. Cells were resuspended in TMG buffer (50 mM Tris-HCl, pH 7.5, 5 mM MgCl2, 10% v/v glycerol) with 1 mM phenylmethanesulfonyl fluoride, 1 mM dithiothreitol, and a small amount of DNase and lysed by two passes through an Avestin B15 homogenizer at 19,000 psi. Lysate was cleared by centrifugation at 9000g and inverted membrane vesicles were collected from the supernatant by centrifugation at 169,000g. To reduce background ATP synthesis activity in AB vesicles, it was important to wash the membranes by resuspending in TMG buffer and centrifuging again at 169,000g. Washed pellets were resuspended in TMG buffer, and aliquots were stored at −80 °C. Once thawed, aliquots were not refrozen. Protein concentration in membrane vesicles was determined using a modified Lowry assay.
In vitro ATP synthesis activity of inverted inner membrane vesicles was measured as previously described. A reaction solution was prepared containing 5 mM tricine-KOH, pH 8.0, 50 mM KCl, 2.5 mM MgCl2, 0.1 mM adenosine diphosphate, 3.75 mM potassium phosphate, and 2.5 mM NADH and distributed into a 96-well plate. NADH-driven ATP synthesis was initiated by addition of inverted vesicles to 50 μg/mL and allowed to proceed for 10 min. The reaction was stopped by transferring an aliquot into 1% trichloroacetic acid. The stopped reaction was diluted 100-fold with deionized water and a sample was transferred to luciferase solution containing 25 mM tricine-NaOH, pH 7.8, 5 mM MgSO4, 0.1 mM EDTA, 0.1 mM NaN3, 150 μg/mL luciferin, and 7.5 μg/mL luciferase. Luminescence was measured in an opaque white 96-well plate using a BioTek H1 multimode plate reader. Each replicate set included a positive control containing DMSO with no compound and a negative control containing carbonyl cyanide 3-chlorophenylhydrazone (CCCP). Luminescence values were corrected for background by subtracting the CCCP control and normalized to the luminescence of the DMSO control. Normalized activity was fit using a variable-slope dose response curve. Nonlinear regression, including prediction of 95% confidence bands, and pairwise comparisons of fits using the F-test method were completed using GraphPad Prism10. Relativeactivity=1/1+(c/IC50)^Hillslope […]
Figure S1. ATP synthesis inhibition by all pyridine compounds in order of WSA compound number. ATP synthesis activities in inverted inner membrane vesicles prepared from AB cells were measured in the presence of 0.0625-64 µg/mL, corrected for background ATP, and normalized to activity with DMSO alone (see methods). For each plot, dots are normalized activities at each concentration (n≥3) on a log 2 scale, solid lines are fitted dose response curves, and dashed lines show the 95% confidence range of the fit. IC50

The subject of data set [7] is AB electron transport chain (ETC). Briefly: AB electron transport chain inhibition: NADH-driven H+ pumping, ACMA fluorescence quenching. Type of data set: biochemical, Acinetobacter baumannii. Conditions: at 2 μg/mL compound. How it is done:
To ensure that the pyridine analogs were selectively inhibiting AB ATP synthase, each analog was also evaluated for inhibition of the AB electron transport chain (ETC) at 2 μg/mL using a standard protocol. − Briefly, respiratory dehydrogenase complexes were energized with NADH to initiate redox-driven H^+ pumping into the vesicle lumen, which was in turn detected by the quenching of 9-amino-6-chloro-2-methoxyacradine fluorescence. Most compounds were tested at concentrations of 2 μg/mL to establish whether ETC inhibition occurred in the same range as ATP synthase inhibition (Figure S2).
NADH-driven proton pumping activity in inverted membrane vesicles was measured as previously described. Briefly, vesicles were diluted to 0.5 mg/mL in HMK buffer (50 mM HEPES, 2 mM MgCl2, 300 mM KCl, pH 7.5) with 0.3 μg/mL 9-amino-6-chloro-2-methoxyacridine (ACMA) and distributed into wells of a black 96-well plate containing various concentrations of inhibitors dissolved in DMSO. ACMA fluorescence (λex = 415 nm, λem = 485 nm) was monitored using a BioTek H1 multimode plate reader. Proton pumping was initiated by addition of NADH to 0.8 mM and terminated by addition of nigericin to 0.5 μg/mL. Activity was defined as the percent quenching of fluorescence, where fluorescence values are normalized to the maximum fluorescence following the addition of nigericin.
Figure S2. Inhibition of the AB electron transport chain (ETC) by compounds at 2 µg/mL.
ETC H+-pumping activity in inverted inner membrane vesicles prepared from AB cells was determined by the quenching of ACMA dye upon initiation with NADH. Addition of nigericin returned fluorescence to baseline, and relative fluorescence quenching is defined as the minimum fluorescence over the maximum fluorescence after addition of nigericin. Relative ETC inhibition (bars) is the fraction of fluorescence quenching decreased by the presence of 2 µg/mL compound.
(1 picture or pasted object on this page, not shown here)

Setting [8] is: inverted inner membrane vesicles, 0.0625-64 µg/mL, n≥3, Table S1, read-out: AB ATP Synthase Inhibition IC50 (converted).
The mark [9] stands for this setting: Figure 2, read-out: IC50, AB ATP synthase inhibition (converted).

Values after ≈ are worked out from the molar mass of the structure shown. Where two headings read alike, the source gives them in different places.

T1 sequence (A3M139 whole entry): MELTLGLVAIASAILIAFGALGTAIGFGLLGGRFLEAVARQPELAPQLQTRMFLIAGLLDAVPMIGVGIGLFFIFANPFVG

In the case of `CCN1CCC(CCNCc2cc3cc(-c4ccccc4)ccc3nc2SCc2ccccc2)CC1` [WSA 261, reference compound], the half-maximal inhibitory concentration (IC50) in data set [1] is 1550 nM. Moreover, in the data set with MDR AB BAA 1605 [2], the “MDR AB MIC” value is 16 µg/mL. Moreover, in the data set with HEK 293 cells, the “MIC, HEK 293 (cytotoxicity)” value was determined as 8 µg/mL (≈ 16.1 µM). Further, in the data set on AB BAA 1605, the MIC came out at 16 µg/mL; the “fold change of MIC, AB BAA 1605” value came out at 2; the “fractional inhibitory concentration index (FICI) / interaction with colistin, MDR AB BAA 1605” value is reported as “additivity”; the “MIC +colistin, AB BAA 1605” value is given as 8 (0.25 μg/mL Col). In addition, in the data set on AB ATCC 17978 [3], the MIC is 8 µg/mL; the “fold change of MIC, AB ATCC 17978” value is recorded as 2; the “fractional inhibitory concentration index (FICI) / interaction with colistin, AB ATCC 17978” value is on record as “additivity”. For the same compound, in the data set with AB ATCC 17978 [3] (with 0.5 μg/mL colistin), the “MIC +colistin, AB ATCC 17978” value is recorded as 4 (0.5 μg/mL Col). Further, the MIC in the data set with MDR AB BAA 1605 [4] is 16 µg/mL (≈ 32.3 µM). The MIC in the data set on AB ATCC 17978 [5] amounted to 8 µg/mL (≈ 16.1 µM).
Regarding `CN1CCN(CCNCc2cc(-c3ccc(F)cc3)cnc2SCc2ccccc2)CC1` [WSA 273], in [6], the “Hill coefficient (Hill slope)” value is given as -0.8. The IC50 in [6] (setting [8]) is 1890 nM. The compound further showed an ETC inhibition in [7] of 40%. In addition, in the data set on HEK 293 cells, the “MIC, HEK 293 (cytotoxicity)” value was determined as 4 µg/mL (≈ 8.88 µM). Further, the MIC with MDR AB BAA 1605 [4] is 128 µg/mL (≈ 284 µM); in the data set with AB ATCC 17978 [5], 32 µg/mL (≈ 71 µM).
On to `CN1CCN(CCNCc2cc(-c3ccc(F)cc3F)cnc2SCc2ccccc2)CC1` [WSA 274], for which the “Hill coefficient (Hill slope)” value in [6] was -0.8. Also, the IC50 in data set [6] (setting [8]) was 1710 nM. In [7], this compound had an ETC inhibition of 40%. In the data set with HEK 293 cells, the “MIC, HEK 293 (cytotoxicity)” value amounted to 4 µg/mL (≈ 8.54 µM). The MIC with MDR AB BAA 1605 [4] stood at 128 µg/mL (≈ 273 µM); in the data set on AB ATCC 17978 [5], 32 µg/mL (≈ 68.3 µM).
On to `Fc1ccc(-c2cnc(SCc3ccccc3)c(CNCc3ccc(CN4CCCC4)cc3)c2)cc1` [WSA 298], for which the IC50 in data set [6] (setting [9]) is 1310 nM. For the same compound, the “Hill coefficient (Hill slope)” value in data set [6] is reported as -0.8. Further, the “MIC, HEK 293 (cytotoxicity)” value against HEK 293 cells amounted to 16 µg/mL (≈ 32.1 µM). In the data set with AB BAA 1605, the MIC amounted to 32 µg/mL; the “fold change of MIC, AB BAA 1605” value is on record as 4; the “fractional inhibitory concentration index (FICI) / interaction with colistin, MDR AB BAA 1605” value is “synergy”; the “MIC +colistin, AB BAA 1605” value was 8 (0.25 μg/mL Col). In addition, in the data set with AB ATCC 17978 [3], the MIC was 16 µg/mL and the “fold change of MIC, AB ATCC 17978” value is 2. Further, in the data set on AB ATCC 17978 [3] (with 0.25 μg/mL colistin), the “MIC +colistin, AB ATCC 17978” value is 8 (0.25 μg/mL Col). The MIC in the data set on MDR AB BAA 1605 [4] amounted to 32 µg/mL (≈ 64.3 µM). Besides, in the data set with AB ATCC 17978 [5], the MIC amounted to 16 µg/mL (≈ 32.1 µM).
With `COc1ccc(-c2cnc(SCc3ccccc3)c(CNCCN3CCN(C)CC3)c2)cc1F` [WSA 275], the IC50 was 416 nM in data set [6] (setting [9]) and 499 nM in data set [6] (setting [8]). In data set [6], the “Hill coefficient (Hill slope)” value is reported as -0.7. Besides, the ETC inhibition in [7] was determined as 40%. Further, in the data set on HEK 293 cells, the “MIC, HEK 293 (cytotoxicity)” value was determined as 4 µg/mL (≈ 8.32 µM). For the same compound, the MIC in the data set with MDR AB BAA 1605 [4] came out at 128 µg/mL (≈ 266 µM); in the data set on AB ATCC 17978 [5], 32 µg/mL (≈ 66.6 µM).
With `COc1ccc(-c2cnc(SCc3ccccc3)c(CNCCC3CCN(C4CCCC4)CC3)c2)cc1` [WSA 288], in data set [6] (setting [9]), the IC50 is 485 nM. Moreover, the “Hill coefficient (Hill slope)” value in data set [6] is -0.9. In addition, in the data set with HEK 293 cells, the “MIC, HEK 293 (cytotoxicity)” value came to 16 µg/mL (≈ 31 µM). In the data set on AB BAA 1605, the MIC was 32 µg/mL; the “fold change of MIC, AB BAA 1605” value is 4; the “fractional inhibitory concentration index (FICI) / interaction with colistin, MDR AB BAA 1605” value is “synergy”; the “MIC +colistin, AB BAA 1605” value is 8 (0.25 μg/mL Col). In the data set on AB ATCC 17978 [3], the MIC was determined as 16 µg/mL; the “fold change of MIC, AB ATCC 17978” value is recorded as 4; the “fractional inhibitory concentration index (FICI) / interaction with colistin, AB ATCC 17978” value is not above 0.5. For the same compound, the MIC in the data set with MDR AB BAA 1605 [4] was 32 µg/mL (≈ 62 µM). Also, the MIC in the data set on AB ATCC 17978 [5] came out at 16 µg/mL (≈ 31 µM).

The values above are taken from publication PMC12509006, “Synthesis and Evaluation of Pyridine-Based Antibacterial Agents that Inhibit ATP Synthase in Acinetobacter baumannii” (ACS Omega, 2025).
